From patent publication US10681909B2, “Herbicidal triazoles” (FMC Corporation, priority 2014, dated 2020)

How the values were obtained:
[1] = test system: nutsedge, yellow; assay: Test C preemergence; assay type: in vivo, Cyperus esculentus; conditions: for Plant response rating (scale of 0 to 100 where 0 is no effect and 100 is complete control): Nutsedge, Yellow, preemergence; for Nutsedge, Yellow plant response rating (0 to 100): Preemergence, visual rating after 13 to 15 d
Excerpt: (§1) Seeds of plant species selected from blackgrass (Alopecurus myosuroides), ryegrass, Italian (Italian ryegrass, Lolium multiflorum), wheat (winter wheat, Triticum aestivum), galium (catchweed bedstraw, Galium aparine), corn (Zea mays), crabgrass, large (large crabgrass, Digitaria sanguinalis), foxtail, giant, (giant foxtail, Setaria faberii), johnsongrass (Sorghum halepense), lambsquarters (Chenopodium album), morningglory (Ipomoea coccinea), nutsedge, yellow (yellow nutsedge, Cyperus esculentus), pigweed (Amaranthus retroflexus), ragweed (common ragweed, Ambrosia elatior), soybean (Glycine max), barnyardgrass (Echinochloa crus-galli), oilseed rape (Brassica napus), waterhemp (common waterhemp, Amaranthus rudis), and velvetleaf (Abutilon theophrasti) were planted into a blend of loam soil and sand and treated preemergence with test chemicals formulated in a non-phytotoxic solvent mixture which included a surfactant. At the same time, plants selected from these crop and weed species and also chickweed (common chickweed, Stellaria media), oat, wild (wild oat, Avena fatua), and kochia (Kochia scoparia), were planted in pots containing Sunshine Redi-Earth® planting medium comprising spaghnum peat moss, vermiculite, starter nutrients and dolomitic limestone and treated with postemergence applications of test chemicals formulated in the same manner. Plants ranged in height from 2 to 18 cm (1- to 4-leaf stage) for postemergence treatments. […] A dash (-) response means no test result.

[2] = test system: buckwheat, wild; assay: Test D preemergence; assay type: in vivo, Polygonum convolvulus; conditions: for Plant response rating (0 to 100), Buckwheat, Wild: 16 g ai/ha, 0 is no effect, 100 is complete control; for Plant response rating: Buckwheat, Wild: scale 0 to 100
Excerpt: (§2) Seeds of plant species selected from bluegrass (annual bluegrass, Poa annua), blackgrass (Alopecurus myosuroides), canarygrass (Phalaris minor), chickweed (common chickweed, Stellaria media), galium (catchweed bedstraw, Galium aparine), bromegrass, down (downy bromegrass, Bromus tectorum), Russian thistle (Salsola kali), field poppy (Papaver rhoeas), field violet (Viola arvensis), foxtail, green (green foxtail, Setaria viridis), deadnettle (henbit deadnettle, Lamium amplexicaule), ryegrass, Ital. (Italian ryegrass, Lolium multiflorum), kochia (Kochia scoparia), lambsquarters (Chenopodium album), oilseed rape (Brassica napus), pigweed (Amaranthus retroflexus), chamomile (scentless chamomile, Matricaria inodora), speedwell (bird's-eye speedwell, Veronica persica), barley, spring (spring barley, Hordeum vulgare), wheat, spring (spring wheat, Triticum aestivum), buckwheat, wild (wild buckwheat, Polygonum convolvulus), wild mustard (Sinapis arvensis), oat, wild (wild oat, Avena fatua), radish, wild (wild radish, Raphanus raphanistrum), […]), barley, winter (winter barley, Hordeum vulgare), and wheat, winter (winter wheat, Triticum aestivum) were planted into a silt loam soil and treated preemergence with test chemicals formulated in a non-phytotoxic solvent mixture which included a surfactant. At the same time, these species were planted in pots containing Sunshine Redi-Earth® planting medium comprising spaghnum peat moss, vermiculite, starter nutrients and dolomitic limestone and treated with postemergence applications of the test chemicals formulated in the same manner. Plants ranged in height from 2 to 18 cm (1- to 4-leaf stage). Treated plants and controls were maintained in a controlled growth environment for 14 to 21 d after which time all species were compared to controls and visually evaluated. […] A dash (-) response means no test result.

[3] = test system: oilseed rape; assay: Test C preemergence; assay type: in vivo, Brassica napus; conditions: for Plant response rating (scale of 0 to 100 where 0 is no effect and 100 is complete control): Oilseed Rape, preemergence; for Oilseed Rape plant response rating (0 to 100): Preemergence, visual rating after 13 to 15 d
Excerpt: as §1

[4] = test system: kochia; assay: Test A postemergence; assay type: in vivo, Kochia scoparia; conditions: 0 to 100 scale (0 no effect, 100 complete control), approx. 10 d
Summary of the method: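 Weed and crop species in loam–sand blend sprayed preemergence on soil or postemergence at 2–10 cm, one- to two-leaf stage, with chemicals in surfactant-containing solvent. Injury rated visually after ~10 d in greenhouse versus untreated controls on a 0–100 scale (100 = complete control).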

[5] = test system: field violet; assay: Test D preemergence; assay type: in vivo, Viola arvensis; conditions: for Plant response rating (0 to 100), Field Violet: 16 g ai/ha, 0 is no effect, 100 is complete control; for Plant response rating: Field Violet: scale 0 to 100
Excerpt: as §2

[6] = test system: windgrass; assay: Test D preemergence; assay type: in vivo, Apera spica-venti; conditions: for Plant response rating (0 to 100), Windgrass: 16 g ai/ha, 0 is no effect, 100 is complete control; for Plant response rating: Windgrass: scale 0 to 100
Excerpt: as §2

[7] = test system: barley, winter; assay: Test D postemergence; assay type: in vivo, Hordeum vulgare; conditions: scale 0 to 100
Excerpt: as §2

[8] = test system: barley, spring; assay: Test D postemergence; assay type: in vivo, Hordeum vulgare; conditions: scale 0 to 100
Excerpt: as §2

Fc1ccc(-c2nc(OCC(F)(F)F)n(Cc3ccnc(C(F)(F)F)c3)n2)cc1 [Compound 30]
Plant response rating (scale of 0 to 100 where 0 is no effect and 100 is complete control) ([1]; 125 g ai/ha): 0
Plant response rating (scale of 0 to 100 where 0 is no effect and 100 is complete control) ([1]; 250 g ai/ha): 10
Nutsedge, Yellow plant response rating (0 to 100) ([1]; 31 g ai/ha): 0
Nutsedge, Yellow plant response rating (0 to 100) ([1]; 62 g ai/ha): 0
Plant response rating (0 to 100), Buckwheat, Wild [2]: 70
Plant response rating: Buckwheat, Wild ([2]; 31 g ai/ha): 70
Plant response rating: Buckwheat, Wild ([2]; 62 g ai/ha): 85
Plant response rating: Buckwheat, Wild ([2]; 125 g ai/ha): 85
Plant response rating (scale of 0 to 100 where 0 is no effect and 100 is complete control) ([3]; 125 g ai/ha): 100
Plant response rating (scale of 0 to 100 where 0 is no effect and 100 is complete control) ([3]; 250 g ai/ha): 100
Oilseed Rape plant response rating (0 to 100) ([3]; 31 g ai/ha): 80
Oilseed Rape plant response rating (0 to 100) ([3]; 62 g ai/ha): 80
Plant response rating, Kochia ([4]; 125 g ai/ha): 90
Plant response rating, Kochia ([4]; 500 g ai/ha): 90
Plant response rating (0 to 100), Field Violet [5]: 100
Plant response rating: Field Violet ([5]; 62 g ai/ha): 100
Plant response rating: Field Violet ([5]; 125 g ai/ha): 100
Plant response rating (0 to 100), Windgrass [6]: 25
Plant response rating: Windgrass ([6]; 62 g ai/ha): 100
Plant response rating: Windgrass ([6]; 125 g ai/ha): 100
Plant response rating: Barley, Winter ([7]; 16 g ai/ha): 20
Plant response rating: Barley, Winter ([7]; 31 g ai/ha): 25
Plant response rating: Barley, Winter ([7]; 62 g ai/ha): 30
Plant response rating: Barley, Winter ([7]; 125 g ai/ha): 40
Plant response rating: Barley, Spring ([8]; 16 g ai/ha): 30
Plant response rating: Barley, Spring ([8]; 31 g ai/ha): 40
Plant response rating: Barley, Spring ([8]; 62 g ai/ha): 35
Plant response rating: Barley, Spring ([8]; 125 g ai/ha): 45

FC(F)(F)COc1nc(-c2ccccc2)nn1Cc1ccnc(C(F)(F)F)c1 [Compound 24]
Plant response rating (scale of 0 to 100 where 0 is no effect and 100 is complete control) ([1]; 125 g ai/ha): 5
Plant response rating (scale of 0 to 100 where 0 is no effect and 100 is complete control) ([1]; 250 g ai/ha): 15
Nutsedge, Yellow plant response rating (0 to 100) ([1]; 31 g ai/ha): 0
Nutsedge, Yellow plant response rating (0 to 100) ([1]; 62 g ai/ha): 0
Plant response rating (0 to 100), Buckwheat, Wild [2]: 50
Plant response rating: Buckwheat, Wild ([2]; 31 g ai/ha): 55
Plant response rating: Buckwheat, Wild ([2]; 62 g ai/ha): 60
Plant response rating: Buckwheat, Wild ([2]; 125 g ai/ha): 70
Plant response rating (scale of 0 to 100 where 0 is no effect and 100 is complete control) ([3]; 125 g ai/ha): 35
Plant response rating (scale of 0 to 100 where 0 is no effect and 100 is complete control) ([3]; 250 g ai/ha): 98
Oilseed Rape plant response rating (0 to 100) ([3]; 31 g ai/ha): 5
Oilseed Rape plant response rating (0 to 100) ([3]; 62 g ai/ha): 30
Plant response rating, Kochia ([4]; 125 g ai/ha): 90
Plant response rating, Kochia ([4]; 500 g ai/ha): 90
Plant response rating (0 to 100), Field Violet [5]: 0
Plant response rating: Field Violet ([5]; 62 g ai/ha): 80
Plant response rating: Field Violet ([5]; 125 g ai/ha): 100
Plant response rating (0 to 100), Windgrass [6]: 0
Plant response rating: Windgrass ([6]; 62 g ai/ha): 65
Plant response rating: Windgrass ([6]; 125 g ai/ha): 100
Plant response rating: Barley, Winter ([7]; 16 g ai/ha): 15
Plant response rating: Barley, Winter ([7]; 31 g ai/ha): 15
Plant response rating: Barley, Winter ([7]; 62 g ai/ha): 25
Plant response rating: Barley, Winter ([7]; 125 g ai/ha): 25
Plant response rating: Barley, Spring ([8]; 16 g ai/ha): 20
Plant response rating: Barley, Spring ([8]; 31 g ai/ha): 25
Plant response rating: Barley, Spring ([8]; 62 g ai/ha): 30
Plant response rating: Barley, Spring ([8]; 125 g ai/ha): 35
